Experimental data taken from US6383276B1, “Azomethine compound and oily magenta ink” (Fuji Photo Film Co., Ltd., priority 1999, dated 2002).

Tests used:
[1] = Absorption maximum and molar extinction coefficient of ethyl acetate solutions; type: physicochemical; settings: ethyl acetate solution
Procedure: With respect to each of the ethyl acetate-base magenta inks [ethyl acetate solutions of the compounds (Ia-1), (Ia-6), (Ia-12), (Ia-13), (Ia-14) and (Ia-15)] prepared in Example 4, the absorption maximum (λmax) and molar extinction coefficient (ε) were measured.
With respect to each of the ethyl acetate-base magenta inks [ethyl acetate solutions of the compounds (X-1), (X-2), (X-3) and (X-4)] prepared in Comparison Example 1, the absorption maximum (λmax) was measured.

[2] = Measurement of solubility in ethyl acetate (Example 6, Comparison Example 1); type: physicochemical; settings: 25° C. for 20 hours, filtered through 0.2 μm filter, ink concentrated
Procedure: With respect to each of the azomethine compounds (Ia-6), (Ia-12) and (Ia-14), 600 mg of the compound was placed in a lidded test tube. After 2 ml of ethyl acetate was added, the mixture was treated with an ultrasonic cleaner for 30 minutes. The resultant liquid was heated and stirred at 65° C. for 1 hour, and then cooled to room temperature. After leaving the test tube in a constant temperature bath at 25° C. for 20 hours, solid particles were filtered off with a micro filter having the pore size of 0.2 μm to prepare an oily magenta ink.
Each prepared ink was concentrated to measure the solubility, but solid (crystallite) was not deposited.
With respect to each of the following azomethine compounds (X-1), (X-2), (X-3) and (X-4), 30 mg of the compound was placed in a lidded test tube. After 2 ml of ethyl acetate was added, the mixture was treated with an ultrasonic cleaner for 30 minutes. The resultant liquid was heated and stirred at 65° C. for 1 hour, and then cooled to room temperature. After leaving the test tube in a constant temperature bath at 25° C. for 20 hours, solid particles were filtered off with a micro filter having the pore size of 0.2 μm to prepare an oily magenta ink. [drawing 13]
Each prepared ink was concentrated to measure the solubility.

Structure (SMILES) | Absorption maximum (λmax) ([1]; Table 1) | Molar extinction coefficient (ε) ([1]; Table 1) | Absorption maximum (λmax) ([1]; Table 2) | Solubility [2]
CCCCCCC(Oc1ccc(C(C)(C)CC)cc1C(C)(C)CC)C(=O)NCC(C)c1nc2n(n1)N=C(C)C2=Nc1ccc(N(CC)CCC#N)cc1 (stereo not drawn) [Ia-1] | 512 nm | 5.0 × 10^4 | – | –
CCCCCCC(Oc1ccc(C(C)(C)CC)cc1C(C)(C)CC)C(=O)NCC(C)c1nc2n(n1)N=C(C)C2=Nc1ccc(N(CCO)CCC#N)cc1C (stereo not drawn) [Ia-6] | 522 nm | 5.2 × 10^4 | 522 nm | 30.2 wt. % or more
CCCCCCCCCCCCCCOC(=O)CCC(=O)Nc1ccc(-c2nc3n(n2)N=C(C(C)(C)C)C3=Nc2ccc(N(CCC#N)CCCC)cc2)cc1 [Ia-12] | 519 nm | 4.8 × 10^4 | 519 nm | 30.1 wt. % or more
CCCCCCC(Oc1ccc(C(C)(C)CC)cc1C(C)(C)CC)C(=O)Nc1ccc(-c2nc3n(n2)N=C(C(C)(C)C)C3=Nc2ccc(N(CC)CCC#N)cc2)cc1 (stereo not drawn) [Ia-13] | 517 nm | 4.6 × 10^4 | – | –
CCCCCCC(Oc1ccc(C(C)(C)CC)cc1C(C)(C)CC)C(=O)Nc1ccc(-c2nc3n(n2)N=C(C(C)(C)C)C3=Nc2ccc(N(CCC#N)CCCC)cc2)cc1 (stereo not drawn) [Ia-14] | 520 nm | 4.8 × 10^4 | 520 nm | 30.1 wt. % or more
CCCCCCC(Oc1ccc(C(C)(C)CC)cc1C(C)(C)CC)C(=O)Nc1ccc(-c2nc3n(n2)N=C(C(C)(C)C)C3=Nc2ccc(N(CCO)CCC#N)cc2C)cc1 (stereo not drawn) [Ia-15] | 532 nm | 4.9 × 10^4 | – | –
COc1ccc(OCCN(CCC#N)c2ccc(N=C3C(C)=Nn4nc(C(C)CN5C(=O)c6ccccc6C5=O)nc43)cc2)cc1 (stereo not drawn) [X-1, reference compound] | – | – | 504 nm | 0.18 wt. %
CCN(CCC#N)c1ccc(N=C2C(C)=Nn3nc(C(C)CNC(=O)CCCOc4ccc(OC)cc4)nc32)cc1 (stereo not drawn) [X-3, reference compound] | – | – | 511 nm | 1.72 wt. %
CCN(CC)c1ccc(N=C2C(C)=Nn3nc(C(C)CNC(=O)CCCOc4ccc(OC)cc4)nc32)c(C)c1 (stereo not drawn) [X-4, reference compound] | – | – | 536 nm | 0.63 wt. %
